Test in all cases: relative viability (nuclei count vs DMSO), 5 days (fraction); higher = more cells survive
Compound in the assay “Dasatinib + Palbociclib”: Cc1nc(Nc2ncc(C(=O)Nc3c(C)cccc3Cl)s2)cc(N2CCN(CCO)CC2)n1 [Dasatinib] + CC(=O)c1c(C)c2cnc(Nc3ccc(N4CCNCC4)cn3)nc2n(C2CCCC2)c1=O [Palbociclib] (partner 0.5 µM)
The procedure, abridged: (§1)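 Medians of duplicate plates are given as relative viability. That measure is the nuclei count in treated wells divided by the count in vehicle wells. Counts were taken on 4× images of lung cancer cell lines in 1536-well plates, 5 days after pin-tool dosing the day after seeding with one drug alone or a fixed anchor-drug dose plus five library-drug doses (not always all listed) in √10 steps.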

Compound in the assay “Dasatinib + Decitabine”: Cc1nc(Nc2ncc(C(=O)Nc3c(C)cccc3Cl)s2)cc(N2CCN(CCO)CC2)n1 [Dasatinib] + Nc1ncn([C@H]2C[C@H](O)[C@@H](CO)O2)c(=O)n1 [Decitabine] (partner 2 µM)
The procedure, abridged:
as §1

Compound in the assay “XMD13-2 + Crizotinib”: C1CC1C(=O)NC2=NNC3=C2C=CC(=C3)C4=CC(=CC=C4)C(=O)NC5CC5 [XMD13-2] + C[C@@H](Oc1cc(-c2cnn(C3CCNCC3)c2)cnc1N)c1c(Cl)ccc(F)c1Cl [Crizotinib] (partner 1 µM)
Put shortly: as §1

Compound in the assay “Dasatinib + Bortezomib”: Cc1nc(Nc2ncc(C(=O)Nc3c(C)cccc3Cl)s2)cc(N2CCN(CCO)CC2)n1 [Dasatinib] + CC(C)C[C@H](NC(=O)[C@H](Cc1ccccc1)NC(=O)c1cnccn1)B(O)O [Bortezomib] (partner 0.002 µM)
Put shortly:
as §1

As for LOU-NH91, the relative viability with Dasatinib + Palbociclib (first compound 0.005 µM) was 0.569; with Dasatinib + Palbociclib (first compound 0.01581 µM) it was 0.51; with Dasatinib + Palbociclib (first compound 0.05 µM), 0.553; with Dasatinib + Palbociclib (first compound 0.1581 µM), 0.498; with Dasatinib + Palbociclib (first compound 0.5 µM) it was 0.369; with Dasatinib + Decitabine (first compound 0.005 µM), 0.83. Besides, the relative viability with Dasatinib + Decitabine (first compound 0.01581 µM) amounted to 0.819; with Dasatinib + Decitabine (first compound 0.05 µM) it was 0.743; in the assay with Dasatinib + Decitabine (first compound 0.1581 µM) it was 0.66; in the assay with Dasatinib + Decitabine (first compound 0.5 µM), 0.421; with XMD13-2 + Crizotinib (first compound 0.05 µM), 0.791; in the assay with XMD13-2 + Crizotinib (first compound 0.1581 µM), 0.659. The relative viability was determined as 0.769 in the assay with XMD13-2 + Crizotinib (first compound 0.5 µM); 0.727 with XMD13-2 + Crizotinib (first compound 1.581 µM); 0.782 with XMD13-2 + Crizotinib (first compound 5 µM); 0.477 in the assay with Dasatinib + Bortezomib (first compound 0.005 µM); 0.477 in the assay with Dasatinib + Bortezomib (first compound 0.01581 µM); 0.479 in the assay with Dasatinib + Bortezomib (first compound 0.05 µM). The results for the relative viability in the assay with Dasatinib + Bortezomib (first compound 0.1581 µM) and in the assay with Dasatinib + Bortezomib (first compound 0.5 µM) were 0.485 and 0.487, respectively.
On to SW 900, for which the relative viability is 0.454 with Dasatinib + Palbociclib (first compound 0.005 µM); 0.273 with Dasatinib + Palbociclib (first compound 0.01581 µM); 0.276 with Dasatinib + Palbociclib (first compound 0.05 µM); 0.222 with Dasatinib + Palbociclib (first compound 0.1581 µM); 0.183 with Dasatinib + Palbociclib (first compound 0.5 µM); 0.46 with Dasatinib + Decitabine (first compound 0.005 µM). Also, the relative viability with Dasatinib + Decitabine (first compound 0.01581 µM) stood at 0.39; in the assay with Dasatinib + Decitabine (first compound 0.05 µM), 0.398; with Dasatinib + Decitabine (first compound 0.1581 µM), 0.413; in the assay with Dasatinib + Decitabine (first compound 0.5 µM) it was 0.23.
With LCLC-103H, the relative viability with Dasatinib + Palbociclib (first compound 0.005 µM) is 0.506; with Dasatinib + Palbociclib (first compound 0.01581 µM), 0.47; in the assay with Dasatinib + Palbociclib (first compound 0.05 µM) it was 0.452; with Dasatinib + Palbociclib (first compound 0.1581 µM), 0.453; with Dasatinib + Palbociclib (first compound 0.5 µM) it was 0.404; with Dasatinib + Decitabine (first compound 0.005 µM), 0.69. For the same cell line, the relative viability worked out at 0.7 with Dasatinib + Decitabine (first compound 0.01581 µM); 0.737 in the assay with Dasatinib + Decitabine (first compound 0.05 µM); 0.625 with Dasatinib + Decitabine (first compound 0.1581 µM); 0.446 with Dasatinib + Decitabine (first compound 0.5 µM); 1.05 in the assay with XMD13-2 + Crizotinib (first compound 0.05 µM); 1.01 with XMD13-2 + Crizotinib (first compound 0.1581 µM). Moreover, the relative viability in the assay with XMD13-2 + Crizotinib (first compound 0.5 µM) was found to be 1.18; with XMD13-2 + Crizotinib (first compound 1.581 µM), 1; with XMD13-2 + Crizotinib (first compound 5 µM), 1.14; with Dasatinib + Bortezomib (first compound 0.005 µM), 0.987; with Dasatinib + Bortezomib (first compound 0.01581 µM) it was 1.06; in the assay with Dasatinib + Bortezomib (first compound 0.05 µM), 1. Besides, the relative viability with Dasatinib + Bortezomib (first compound 0.1581 µM) was 0.918; in the assay with Dasatinib + Bortezomib (first compound 0.5 µM), 0.613.
With NCI-H1915, the relative viability with Dasatinib + Palbociclib (first compound 0.005 µM) was found to be 0.482; with Dasatinib + Palbociclib (first compound 0.01581 µM), 0.438; with Dasatinib + Palbociclib (first compound 0.05 µM), 0.403; with Dasatinib + Palbociclib (first compound 0.1581 µM) it was 0.195; in the assay with Dasatinib + Palbociclib (first compound 0.5 µM) it was 0.163; with Dasatinib + Decitabine (first compound 0.005 µM), 0.291. Moreover, the relative viability in the assay with Dasatinib + Decitabine (first compound 0.01581 µM) was 0.249; with Dasatinib + Decitabine (first compound 0.05 µM), 0.231; with Dasatinib + Decitabine (first compound 0.1581 µM) it was 0.224; in the assay with Dasatinib + Decitabine (first compound 0.5 µM), 0.144; with XMD13-2 + Crizotinib (first compound 0.05 µM), 0.966; with XMD13-2 + Crizotinib (first compound 0.1581 µM), 0.931. The relative viability was determined as 0.902 with XMD13-2 + Crizotinib (first compound 0.5 µM); 0.967 with XMD13-2 + Crizotinib (first compound 1.581 µM); 0.941 in the assay with XMD13-2 + Crizotinib (first compound 5 µM); 0.982 with Dasatinib + Bortezomib (first compound 0.005 µM); 0.809 with Dasatinib + Bortezomib (first compound 0.01581 µM); 0.876 with Dasatinib + Bortezomib (first compound 0.05 µM). Also, the relative viability with Dasatinib + Bortezomib (first compound 0.1581 µM) is 0.593; with Dasatinib + Bortezomib (first compound 0.5 µM), 0.298.
Consider IA-LM, for which the relative viability turned out to be 0.674 in the assay with XMD13-2 + Crizotinib (first compound 0.05 µM); 0.794 with XMD13-2 + Crizotinib (first compound 0.1581 µM); 0.65 in the assay with XMD13-2 + Crizotinib (first compound 0.5 µM); 0.664 in the assay with XMD13-2 + Crizotinib (first compound 1.581 µM); 0.528 with XMD13-2 + Crizotinib (first compound 5 µM); 1.14 in the assay with Dasatinib + Bortezomib (first compound 0.005 µM). Also, the relative viability turned out to be 0.882 with Dasatinib + Bortezomib (first compound 0.01581 µM), 1.03 in the assay with Dasatinib + Bortezomib (first compound 0.05 µM), 0.766 in the assay with Dasatinib + Bortezomib (first compound 0.1581 µM) and 0.615 with Dasatinib + Bortezomib (first compound 0.5 µM).
With NCI-H1734, the relative viability with Dasatinib + Palbociclib (first compound 0.005 µM) was 0.328; with Dasatinib + Palbociclib (first compound 0.01581 µM), 0.285; in the assay with Dasatinib + Palbociclib (first compound 0.05 µM) it was 0.295; in the assay with Dasatinib + Palbociclib (first compound 0.1581 µM), 0.208; with Dasatinib + Palbociclib (first compound 0.5 µM) it was 0.2; in the assay with Dasatinib + Decitabine (first compound 0.005 µM), 0.508. The relative viability with Dasatinib + Decitabine (first compound 0.01581 µM) came out at 0.48; with Dasatinib + Decitabine (first compound 0.05 µM), 0.533; with Dasatinib + Decitabine (first compound 0.1581 µM) it was 0.412; with Dasatinib + Decitabine (first compound 0.5 µM), 0.321; with XMD13-2 + Crizotinib (first compound 0.05 µM), 0.91; with XMD13-2 + Crizotinib (first compound 0.1581 µM) it was 0.655. Moreover, the relative viability in the assay with XMD13-2 + Crizotinib (first compound 0.5 µM) is 0.66; in the assay with XMD13-2 + Crizotinib (first compound 1.581 µM) it was 0.594; with XMD13-2 + Crizotinib (first compound 5 µM) it was 0.474; in the assay with Dasatinib + Bortezomib (first compound 0.005 µM) it was 0.754; with Dasatinib + Bortezomib (first compound 0.01581 µM), 0.508; with Dasatinib + Bortezomib (first compound 0.05 µM), 0.79. Moreover, the relative viability was 0.425 with Dasatinib + Bortezomib (first compound 0.1581 µM) and 0.561 with Dasatinib + Bortezomib (first compound 0.5 µM).
SK-MES-1: the relative viability with Dasatinib + Palbociclib (first compound 0.005 µM) is 0.353; with Dasatinib + Palbociclib (first compound 0.01581 µM), 0.358; in the assay with Dasatinib + Palbociclib (first compound 0.05 µM), 0.269; with Dasatinib + Palbociclib (first compound 0.1581 µM), 0.187; with Dasatinib + Palbociclib (first compound 0.5 µM), 0.154; with Dasatinib + Decitabine (first compound 0.005 µM), 0.409. For the same cell line, the relative viability in the assay with Dasatinib + Decitabine (first compound 0.01581 µM) is 0.364; with Dasatinib + Decitabine (first compound 0.05 µM) it was 0.265; in the assay with Dasatinib + Decitabine (first compound 0.1581 µM), 0.169; with Dasatinib + Decitabine (first compound 0.5 µM), 0.136; with XMD13-2 + Crizotinib (first compound 0.05 µM), 1.14; with XMD13-2 + Crizotinib (first compound 0.1581 µM), 1.06. Also, the relative viability in the assay with XMD13-2 + Crizotinib (first compound 0.5 µM) came to 1.04; in the assay with XMD13-2 + Crizotinib (first compound 1.581 µM), 0.93; with XMD13-2 + Crizotinib (first compound 5 µM), 1.02.
Turning to Calu-6, the relative viability worked out at 0.958 with XMD13-2 + Crizotinib (first compound 0.05 µM); 0.813 with XMD13-2 + Crizotinib (first compound 0.1581 µM); 0.898 with XMD13-2 + Crizotinib (first compound 0.5 µM); 0.773 with XMD13-2 + Crizotinib (first compound 1.581 µM); 0.643 with XMD13-2 + Crizotinib (first compound 5 µM); 0.869 with Dasatinib + Bortezomib (first compound 0.005 µM). For the same cell line, the relative viability with Dasatinib + Bortezomib (first compound 0.01581 µM) turned out to be 0.855; in the assay with Dasatinib + Bortezomib (first compound 0.05 µM) it was 0.746; with Dasatinib + Bortezomib (first compound 0.1581 µM) it was 0.642; with Dasatinib + Bortezomib (first compound 0.5 µM), 0.513.
Regarding HCC-15, the relative viability is 0.714 with Dasatinib + Palbociclib (first compound 0.005 µM); 0.669 with Dasatinib + Palbociclib (first compound 0.01581 µM); 0.673 in the assay with Dasatinib + Palbociclib (first compound 0.05 µM); 0.578 with Dasatinib + Palbociclib (first compound 0.1581 µM); 0.565 in the assay with Dasatinib + Palbociclib (first compound 0.5 µM); 0.609 with Dasatinib + Decitabine (first compound 0.005 µM). The relative viability with Dasatinib + Decitabine (first compound 0.01581 µM) stood at 0.606; in the assay with Dasatinib + Decitabine (first compound 0.05 µM) it was 0.496; in the assay with Dasatinib + Decitabine (first compound 0.1581 µM), 0.428; with Dasatinib + Decitabine (first compound 0.5 µM) it was 0.466; with XMD13-2 + Crizotinib (first compound 0.05 µM) it was 0.925; with XMD13-2 + Crizotinib (first compound 0.1581 µM), 0.766. Also, the relative viability with XMD13-2 + Crizotinib (first compound 0.5 µM) worked out at 0.857; in the assay with XMD13-2 + Crizotinib (first compound 1.581 µM) it was 0.793; in the assay with XMD13-2 + Crizotinib (first compound 5 µM), 0.472; with Dasatinib + Bortezomib (first compound 0.005 µM) it was 1.01; with Dasatinib + Bortezomib (first compound 0.01581 µM), 1.01; with Dasatinib + Bortezomib (first compound 0.05 µM), 1.11. The relative viability came to 0.965 with Dasatinib + Bortezomib (first compound 0.1581 µM) and 0.743 in the assay with Dasatinib + Bortezomib (first compound 0.5 µM).

The values above are taken from the supplement of paper PMC10307832.
